The values that follow come from publication PMC9688111, “An Evolutionary Perspective on the Origin, Conservation and Binding Partner Acquisition of Tankyrases” (Biomolecules, 2022).

No end group written: not given here. YFP = yellow fluorescent protein

The target of one test is T1, AqTNKS ART (Amphimedon queenslandica, UniProt A0AAN0IWK4).
T1 construct: catalytic ART domain, Thr968-Thr1181; MBP tag removed by TEV; E. coli BL21(DE3), codon-optimized
The experiment in a line: differential scanning fluorimetry (SYPRO orange). Type of test: binding. The following applies: […] protein, […] compound, pH […]. On the technique in general: Differential scanning fluorimetry follows unfolding on heating by fluorescence.

The next test deals with T2, TNKS1 ART (Homo sapiens, UniProt O95271).
T2 construct: gene TNKS; catalytic ART domain; E. coli BL21(DE3)
T2 sequence (O95271 1105-1327 limits assumed): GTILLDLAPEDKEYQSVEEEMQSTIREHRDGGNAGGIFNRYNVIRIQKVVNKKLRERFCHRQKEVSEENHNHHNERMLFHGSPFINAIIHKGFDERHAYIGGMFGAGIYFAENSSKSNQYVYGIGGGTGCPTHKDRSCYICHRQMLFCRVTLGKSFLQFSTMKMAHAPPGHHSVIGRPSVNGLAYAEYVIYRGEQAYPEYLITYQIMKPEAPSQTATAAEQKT
The experiment in a line: differential scanning fluorimetry (SYPRO orange). Type of test: binding. The following applies: […] protein, […] compound, pH […]; adenosine site.

The target of a further test is T3, TNKS1 SAM-ART (Homo sapiens, UniProt O95271).
T3 construct: gene TNKS; SAM and ART domains; N-terminal MBP tag kept; E. coli BL21(DE3)
T3 sequence (O95271 1030-1327 limits assumed): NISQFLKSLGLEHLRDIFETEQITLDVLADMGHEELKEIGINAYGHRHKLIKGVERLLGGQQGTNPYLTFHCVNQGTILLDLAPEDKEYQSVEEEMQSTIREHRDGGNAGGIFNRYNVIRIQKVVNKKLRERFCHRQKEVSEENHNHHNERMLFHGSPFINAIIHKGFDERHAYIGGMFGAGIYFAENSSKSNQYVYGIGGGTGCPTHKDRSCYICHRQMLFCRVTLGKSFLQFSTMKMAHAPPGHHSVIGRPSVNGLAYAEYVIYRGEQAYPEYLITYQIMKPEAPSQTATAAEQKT
The experiment in a line: auto-PARylation, Western blot. The conditions noted are these: […] protein; biotin-NAD+/NAD+ ([…]), […] total; […] h, room temperature; labelled compound as tracer. Type of test: biochemical.

For the next test, the target named is T4, AqTNKS SAM-ART (Amphimedon queenslandica, UniProt A0AAN0IWK4).
T4 construct: SAM and ART domains, Pro889-Thr1181; N-terminal MBP tag kept; E. coli BL21(DE3); forms multimers
T4 sequence (A0AAN0IWK4 entry or part of it): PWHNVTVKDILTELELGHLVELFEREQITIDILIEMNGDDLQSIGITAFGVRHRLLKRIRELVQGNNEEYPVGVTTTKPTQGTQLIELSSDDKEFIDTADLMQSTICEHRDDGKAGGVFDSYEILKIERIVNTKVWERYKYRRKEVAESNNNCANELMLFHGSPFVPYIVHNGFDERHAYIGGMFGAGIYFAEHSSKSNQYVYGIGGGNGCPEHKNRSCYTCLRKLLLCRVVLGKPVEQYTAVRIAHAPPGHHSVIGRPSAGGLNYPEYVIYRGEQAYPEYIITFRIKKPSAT
The experiment in a line: auto-PARylation, Western blot. The conditions noted are these: […] protein; biotin-NAD+/NAD+ ([…]), […] total; […] h, room temperature; labelled compound as tracer. Type of test: biochemical. (In western blotting, separated proteins are transferred to a membrane and probed.)

The target in a further test is T5, CFP-ARC5 (AqTNKS) (Amphimedon queenslandica).
T5 chain: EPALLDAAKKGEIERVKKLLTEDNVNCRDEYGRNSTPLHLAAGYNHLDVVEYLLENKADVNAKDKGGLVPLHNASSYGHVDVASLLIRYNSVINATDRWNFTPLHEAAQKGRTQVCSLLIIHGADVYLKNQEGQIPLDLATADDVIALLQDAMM
Briefly: FRET.

T1 sequence (A0AAN0IWK4 entry or part of it): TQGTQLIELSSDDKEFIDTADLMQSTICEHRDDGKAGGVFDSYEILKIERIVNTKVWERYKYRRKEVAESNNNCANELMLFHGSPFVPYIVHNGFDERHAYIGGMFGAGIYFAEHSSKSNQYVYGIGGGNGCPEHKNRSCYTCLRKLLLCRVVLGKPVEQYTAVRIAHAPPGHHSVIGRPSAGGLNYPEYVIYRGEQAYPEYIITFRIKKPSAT

Turning to `Cc1cc(N2C[C@@H](C)N[C@@H](C)C2)ncc1-c1ccc(-c2nc3c(ccn3C)c(=O)[nH]2)cc1` [AZ6102], the Tm shift entry at AqTNKS ART (nicotinamide site, compound named in Results but not in the Methods list) is “For all inhibitors, the melting temperatures for both TNKS1 and AqTNKS were similarly increased”.
On to `O=c1[nH]nc2c3c(cccc13)NC(CN1Cc3ccccc3C1)=N2` [E7449], for which the Tm shift entry at AqTNKS ART (nicotinamide site) was “For all inhibitors, the melting temperatures for both TNKS1 and AqTNKS were similarly increased”.
In the case of `CS(=O)(=O)c1ccc(-c2nnc(/C=C/c3nnc(-c4ccc(C#N)cc4)o3)n2-c2ccccc2Cl)nc1` [G007-LK], the Tm shift entry on AqTNKS ART (adenosine site) was “For all inhibitors, the melting temperatures for both TNKS1 and AqTNKS were similarly increased”; at TNKS1 ART it was “For all inhibitors, the melting temperatures for both TNKS1 and AqTNKS were similarly increased”.
Consider `NC(=O)c1ccc[n+]([C@@H]2O[C@H](COP(=O)(O)OP(=O)(O)OC[C@H]3O[C@@H](n4cnc5c(N)ncnc54)[C@H](O)[C@@H]3O)[C@@H](O)[C@H]2O)c1` [NAD^+], for which the “auto-PARylation, Western blot” value at TNKS1 SAM-ART is “PARylation of the proteins was clearly detected for the SAM-ART constructs of AqTNKS and TNKS1”; on AqTNKS SAM-ART it was “PARylation of the proteins was clearly detected for the SAM-ART constructs of AqTNKS and TNKS1”.
`COc1ccc(C(=O)C2CCN(CC(=O)N(Cc3nc4c(c(=O)[nH]3)COCC4)CC3CC3)CC2)cc1` [NVP-TNKS656]: the Tm shift entry at AqTNKS ART (dual site) is “For all inhibitors, the melting temperatures for both TNKS1 and AqTNKS were similarly increased”.
For `O=c1[nH]c(-c2ccc(C(F)(F)F)cc2)nc2c1CSCC2` [XAV939], the Tm shift entry at AqTNKS ART (nicotinamide site) is “For all inhibitors, the melting temperatures for both TNKS1 and AqTNKS were similarly increased”.
On to {YFP}-REAGDGEE [YFP-REAGDGEE], for which binding in the test with CFP-ARC5 (AqTNKS) was characterised by a dissociation constant (Kd) of 98.5 nM.
